From US10550422B2, “Methods and compositions for labeling nucleic acids” (President and Fellows of Harvard College, priority 2005, dated 2020) come the findings set out here.

Test [1] has as its system HeLa cells. Kind of test: AdU labeling of HeLa cells, stained with Alexa568-alkyne. The test is classed as cell-based. The following applies: 10 μM AdU overnight, 10 μM Alexa568-alkyne; FIG. 16. The protocol:
Here HeLa cells were labeled overnight in 10 μM AdU and then stained with 10 μM Alexa568-alkyne using the conditions described herein for staining cells labeled with EdU. FIG. 16 presents two pictures of a field of the stained HeLa cells.

The test system of test [2] is HeLa cells. Kind of test: EdU labeling of HeLa cells, fixed/permeabilized, stained with Xrhodamine-azide (click chemistry). Conditions: 1 μM EdU, cell in anaphase, FIG. 11. It is filed as cell-based. The method, then: Ethynyl-dU (EdU) was used in tissue culture media (DMEM complemented with penicillin, streptomycin, and fetal calf serum (FCS)) ranging from 10 nM to 1 μM depending on the length of the labeling pulse. For example, if cells to be labeled were synchronized in the S phase, 100 nM to 1 μM of EdU was used for 1 to 2 hours. After labeling, the cells were washed 3 or 4 times with PBS and then tissue culture media was added.
Staining Solution: 100 mM Tris pH 8.5 (from 2 M stock in water), 0.5 to 1 mM CuSO4 (from 1 M stock in water), 0.5 to 1 μM fluorophore-azide (from approximately 10-100 mM stock in DMSO), and water (as required) were mixed together. Ascorbic acid (from a […] stock in water) was then added to this solution to a final concentration of 50-100 mM, and the resulting staining solution is mixed thoroughly using a vortex.
Cells can be fixed by any suitable method, e.g., cells can be fixed by aldehyde fixation (formaldehyde or glutaraldehyde), with or without permeabilization. After fixation, the cells were washed in buffer with or without non-ionic detergent (0.2-0.5% Triton X100). Before staining, cells were rinsed with buffer without detergent (PBS or TBS). The cells were then incubated in the presence of the staining solution for at least 30 minutes. Overnight staining is preferably performed in a cold room. […]

Test [3] concerns HeLa cells. Kind of test: Tracing a single sister chromatid: EdU pulse, chase of two cell cycles, Alexa568-azide stain. The test is classed as cell-based. Conditions: EdU pulse during DNA synthesis, Alexa568-azide with permeabilization, FIG. 13. The source says: The purpose of the experiment reported herein was to label only one DNA molecule of the two that form a chromosome. That was accomplished by pulsing HeLa cells with EdU during DNA synthesis followed by a chase lasting two cell cycles, as depicted on FIG. 12. […] EdU allowed very nice resolution imaging of chromosomes in cells as shown by FIG. 13.

In test [4] the test system is HeLa cells. Description: Time-lapse fluorescence imaging of EdU-labeled live cells stained with TMR-propyl-azide. It is filed as cell-based. The following applies: 200 nM TMR-propyl-azide, 25 mM ascorbate, 1 mM copper (II) sulfate, 37° C.; FIG. 7. The method, then: Ascorbic acid (from a […] stock in water) was then added to this solution to a final concentration of 50 mM, and the resulting staining solution is mixed thoroughly.
Washes with methanol or ethanol may be performed to obtain low background
To facilitate live microscopic imaging, EdU-labeled cells were plated in coverslip chambers which were mounted on the heated stage (37° C.) of an inverted Nikon TE200)U microscope equipped for wide-field fluorescence microscopy as well as spinning-disk confocal fluorescence microscopy (Yokogama spinning disk confocal head from Perkin-Elmer). […] The cells were imaged by time-lapse fluorescent microscopy (one frame every 15 seconds) to detect the TMR signal accumulating in the nuclei of the EdU-labeled cells.

Test [5] has as its system mouse intestine and brain. Kind of test: In vivo EdU labeling of mice, organ sections stained with Xrhodamine-azide and Hoechst. The following applies: 200 micrograms EdU intraperitoneally, organs harvested three days later. The protocol: BLAB/C mice were injected with 200 micrograms of EdU intraperitoneally. Three days later, organs were harvested, fixed, embedded in paraffin and sectioned. The sections were then de-waxed and stained with Xrhadomine-azide for 5 minutes, stained with Hoechst, washed and then mounted.

On to `[N-]=[N+]=Nc1cn([C@H]2C[C@H](O)[C@@H](CO)O2)c(=O)[nH]c1=O` [AdU, 5-azido-2′-deoxyuridine], for which the “detection of AdU in labeled cells” value in the test with HeLa cells [1] is on record as “clearly detected in the nuclei of the labeled interphase cells as well as in the condensed chromosomes of mitotic cells”.

Consider `C#Cc1cn([C@H]2C[C@H](O)[C@@H](CO)O2)c(=O)[nH]c1=O` [EdU, 5-ethynyl-2′deoxyuracil], for which the “EdU stain of cellular DNA (fluorescence microscopy)” value with HeLa cells [2] is on record as “only the DNA replicating during the pulse was labeled”. Moreover, the “DNA molecules of a chromosome labeled after first and second mitosis” value in the test with HeLa cells [3] was “In the first mitosis after labeling, both DNA molecules were labeled while in the second mitosis only one DNA molecule was labeled”. Moreover, the “time to complete EdU detection on live cells” value in the test on HeLa cells [4] is “complete within minutes”. Moreover, the “EdU incorporation in intestine section” value in test [5] (FIG. 8) is “The cells with red nuclei are the cells which incorporated EdU and their descendants”. Also, the “EdU-labeled cells in brain section” value in test [5] (FIG. 10) is “A sole EdU-labeled cell can be easily identified”.
